These are literature values, as cited in patent publication US11154585B2, “Orodispersible film composition comprising enalapril for the treatment of hypertension in a pediatric population” (PHARMATHEN S.A., priority 2017, dated 2021).

Structures can show the parent of a compound that is named as a salt. Where two headings read alike, the source gives them in different places.

`CCOC(=O)[C@H](CCc1ccccc1)N[C@@H](C)C(=O)N1CCC[C@H]1C(=O)O` [Enalapril maleate]: the Solubility result runs as follows: (alcohol) “soluble”; (methanol and dimethylformamide) “freely soluble”; (nonpolar organic solvents) “practically insoluble”; (semi polar organic solvents) “slightly soluble”; (water) “sparingly soluble”.
